Patent US6521568B1, “Plant disease controlling compositions and plant disease controlling method” (Sumitomo Chemical Company, Limited, priority 1999, dated 2003)

System: fungi of gray mold of cucumber
Assay: Controlling effect on gray mold of cucumber, foliar spray on potted cucumber plants
Format: in vivo, Botrytis cinerea
Conditions: single compound, 5.0 ppm, 10° C. humid for 6 days after inoculation
Description: Plastic pots were filled with sandy loam and sown with cucumber (Sagamihanjiro), followed by growing in a greenhouse for 12 days. A wettable powder of the Compound (I-j) and a wettable powder of procymidone were separately diluted with water, and these dilutions were tank-mixed, then the tank-mixed dilution of the prescribed concentrations of the Compound (I-j) and procymidone was prepared. Said tank-mixed dilution was sprayed to foliage of said cucumber so as to adhere the dilution sufficiently to the surfaces of its leave. After air-drying, a PDA medium including hyphae of the fungi of gray mold of cucumber was placed on the leave surfaces of said cucumber. After inoculation, the plastic pots were placed under a humid environment of 10° C. for 6 days, and then the controlling effect was examined. […]
At the examination, the following evaluation indices was used. The attack rates were calculated with Scheme 1, and then on the basis of the attack rates, the controlling values were calculated with Scheme 2. […]
The controlling effect, which is expected when treatment is carried out by mixing the given two species of active ingredient compounds, is generally calculated according to the following Colby equation described at Scheme 3. […]

CC12CC1(C)C(=O)N(c1cc(Cl)cc(Cl)c1)C2=O (stereo not shown) [(II), N-(3,5-dichlorophenyl)-1,2-dimethylcyclopropane-1,2-dicarboximide]
Actual controlling value: 0%
